{"source": "patent US10905761B2", "about": "“Use of a lipopeptide or lipoprotein as an adjuvant in therapeutic or prophylactic vaccinations” (HELMHOLTZ-ZENTRUM FUER INFEKTIONSFORSCHUNG GMBH, priority 2002, dated 2021)", "format_in_all_cases": "in vivo", "key": {"BALB/c (H-2d) mice [1]": {"test_system": "BALB/c (H-2d) mice", "assay": "Humoral responses after immunization by various routes with MALP-2 as adjuvant (serum β-galactosidase-specific antibody ELISA, Example 2)", "conditions": "day 28", "protocol": "Mice were immunized by subcutaneous (s.c.), intraperitoneal (i.p.), intradermal (i.d.) and intranasal (i.n.) routes with either pure β-galactosidase (40 μg) or β-galactosidase mixed with MALP-2 (0.5 μg) on days 0, 7 and 14. On day 28 after the primary immunization, serum samples were removed and the titer of β-galactosidase-specific antibodies was determined by means of an ELISA. The results are shown as reciprocal log2 of the geometric mean of the endpoint titer. As a control, we included a group in which the animals were immunized by the route with β-galactosidase using aluminum hydroxide as adjuvant.\nMice were immunized by the intraperitoneal (i.p.) and intranasal (i.n.) route with either pure β-galactosidase (40 μg/dose) or β-galactosidase mixed with MALP-2 (1 μg/dose) on days 0, 7 and 14. On day 28 after the primary immunization, serum samples were taken and the titer of β-galactosidase-specific antibodies was determined by means of an ELISA. The results are shown as absorbances (OD […]).\nSix- to eight-week old female BALB/c (H-2d) mice were purchased from Harlan Winkelmann GmbH (Borchen, Germany) and treated in accordance with local and EU directives. Groups each of 5 mice were immunized on day 1, 7 and 14 either with 40 μg of pure β-galactosidase (Boehringer, Mannheim, Germany), or with admixture of 1 or 0.5 μg of synthetic MALP-2. For the intranasal administration (i.n.), 10 μl was administered into each nostril, whereas for i.p., s.c. and i.d. injection β-galactosidase was resuspended with or without MALP-2 in respectively 400, 100 and 100 μl of PBS. 28 days after the first immunization, serum samples were taken and stored at −20° C. until the β-gal-specific antibodies were determined. Nunc-Immuno MaxiSorp assay plates with 96 wells (Nunc, Roskilde, Denmark) were coated with 100 μl of β-galactosidase (Boehringer, Mannheim, Germany) with 5 μg/ml in 0.05 M carbonate buffer (pH 8.2) per well. Serum dilutions with 1% BSA and 0.05% Tween-20 in PBS were added ([…]), and the plates were incubated at 37° C. for 24 hours. […]"}, "BALB/c (H-2d) mice [2]": {"test_system": "BALB/c (H-2d) mice", "assay": "Cellular responses (spleen cell proliferation) after immunization with different MALP-2 doses (Example 3)", "conditions": "1 μg MALP-2; spleen cells restimulated with β-galactosidase; day 28", "protocol": "β-Galactosidase-specific T-cell proliferation responses of mouse spleen cells immunized by the i.p. or i.n. routes with either pure β-galactosidase (40 μg/dose) or β-galactosidase mixed with MAPL-2 (1 or 0.5 μg/dose) on days 0, 7 and 14. On day 28 after the primary immunization, the animals were sacrificed and the spleen cells were restimulated in vitro in the presence of 20 μg/ml soluble β-galactosidase for four days. The results are shown as stimulation indices (cpm of samples/cpm in unstimulated control cells).\nSix- to eight-week old female BALB/c (H-2d) mice were purchased from Harlan Winkelmann GmbH (Borchen, Germany) and treated in accordance with local and EU directives. Groups each of 5 mice were immunized on day 1, 7 and 14 either with 40 μg of pure β-galactosidase (Boehringer, Mannheim, Germany), or with admixture of 1 or 0.5 μg of synthetic MALP-2. For the intranasal administration (i.n.), 10 μl was administered into each nostril, while for the i.p. injection β-galactosidase was resuspended with or without MALP-2 in 400 μl of PBS. […] The cells were then harvested on filter paper (Filtermat A; Wallac, Freiburg, Germany) with a cell harvester (Inotech, Wohlen, Switzerland), and the amount of [H]thymidine incorporated into the DNA of the proliferated cells was determined with the aid of a […] scintillation counter (Wallac 1450, Micro-Trilux). […]"}, "BALB/c (H-2d) mice [3]": {"test_system": "BALB/c (H-2d) mice", "assay": "β-Galactosidase-specific T-cell proliferation of spleen and regional lymph node cells of immunized mice (Example 7)", "protocol": "The cells were restimulated in vitro with various concentrations of soluble β-galactosidase for four days. The results are shown as average cpm subtracted from the background values for unstimulated cells from groups of three. The SEM is depicted by vertical lines.\nLymph nodes located below the lower jaw and the spleens were removed and put together for the analysis of the cellular immune responses. The cells were grown in RPMI 1640 supplemented by 10% fetal calf serum, 10 U/ml penicillin, 50 μg/ml streptomycin, 5×10^−5 M 2-mercaptoethanol and 1 mM L-glutamine (GIBCO BRL, Karlsruhe, Germany) and stored at 37° C. in a moist atmosphere with 5% CO2. The suspensions of lymph node and spleen cells were adjusted to 5×10^6 cells/ml in complete medium and put in a flat-bottomed 96-well microtiter plate (Nunc) with 100 μl/well, and the plates were incubated in the presence of various concentrations of soluble β-galactosidase for 4 days. Each concentration was tested in groups of three. During the last 18 hours of the incubation, 1 ρCi of [^3H]thymidine (Amersham International, Freiburg, Germany) was added to each well. The cells were then harvested on filter paper (Filtermat A; Wallac, Freiburg, Germany) using a cell harvester (Inotech, Wohlen, Switzerland), and the amount of incorporated [^3H]thymidine in the DNA of the proliferated cells was determined with the aid of a […] (Wallac 1450, Micro-Trilux). The results have been shown as the arithmetic mean of the uptake of [^3H]thymidine in cpm."}}, "note": "“Also recorded” adds a separate entry of the source. No end group written: not given here."}
{"substance": "S-[2,3-bispalmitoyloxypropyl]cysteinyl-GNNDESNISFKEK ({S‑(2,3-bispalmitoyloxypropyl)Cys}-GNNDESNISFKEK) [MALP-2]", "values": [{"measurement": "antibody responses compared with aluminum hydroxide as standard adjuvant for s.c. injection", "setting": "BALB/c (H-2d) mice [1]; 0.5 μg MALP-2, s.c., i.p., i.d., i.n.", "value": "at least as strong as (i.d.) or stronger"}, {"measurement": "adjuvant effect on β-galactosidase-specific serum antibodies", "setting": "BALB/c (H-2d) mice [1]; 0.5 μg MALP-2 mixed with 40 μg β-galactosidase, s.c., i.p., i.d., i.n.", "value": "significant increase; also recorded: strong adjuvant effect"}, {"measurement": "adjuvant effect on β-galactosidase-specific serum antibodies at higher dose", "setting": "BALB/c (H-2d) mice [1]; 1 μg MALP-2, i.p. and i.n.", "value": "abolition of the adjuvant effect"}, {"measurement": "cell-mediated immunization (spleen cell proliferation) at higher dose", "setting": "BALB/c (H-2d) mice [2]", "value": "cell-mediated immunization is reduced"}, {"measurement": "T-cell proliferation / cellular response compared with CTB as adjuvant", "setting": "BALB/c (H-2d) mice [3]; 0.5 μg MALP-2 versus 10 μg CTB, i.n., p<0.05", "value": "statistically significant (p<0.05) increase in T-cell proliferation; also recorded: distinctly higher proliferation"}, {"measurement": "proliferation of lymph node and spleen cells after in vitro restimulation with β-galactosidase", "setting": "BALB/c (H-2d) mice [3]; i.n. immunization, day 31", "value": "efficient proliferation response"}, {"measurement": "proliferation of spleen cells after in vitro restimulation with β-galactosidase", "setting": "BALB/c (H-2d) mice [3]; i.p. immunization, day 31", "value": "further increase in proliferation"}]}
